Laboratory results as given in paper PMC12040169 (PLOS Biology, 2025).

assay: in vitro; conditions: human, hela cells, % viability

| SMILES | viability at 28.5 h, 10 µM [%] |
| --- | --- |
| COc1ccc(-c2ccnc3[nH]c(=O)ccc23)cc1C [CBK073726] | 110 |
| Cc1ncccc1COC(=O)N1c2ccccc2CCC1C (stereo not shown) [CBK200204] | 101 |
| OC(CNCc1ccc2c(c1)OCO2)COc1ccc(Cl)c(Cl)c1 (stereo not shown) [CBK074649] | 89.3 |
| OCCNc1ncnc2c1ncn2Cc1ccccc1 [CBK287933] | 106 |
| CCn1c(C(O)c2ccc(OC)c(OC)c2)nc2ccccc21 (stereo not shown) [CBK262974] | 90.1 |
| O=S(=O)(c1ccccc1)c1ccc(N2CCNCC2)cc1 [CBK018452] | 97.8 |
| Cc1cc(-c2c(C)n(-c3ccccc3)[nH]c2=O)n2ncnc2n1 [CBK288441] | 89.4 |
| CCc1nc2ccc(C(=O)Nc3ccc(OC)c(OC)c3)cn2c1N(C)C(=O)Nc1ccccc1OC [CBK145875] | 117 |
| Cc1ccc(C(=O)NCCCNc2ccc(Cl)cc2[N+](=O)[O-])cc1 [CBK262334] | 101 |
| Cc1ccn(CCC(=O)N2CCC3(C/C=C/C[C@H]4COCC[C@@H]4NC(=O)CNC3=O)CC2)n1 [CBK292070] | 86 |
| COc1ccc(CCNc2ncnc3sc4c(c23)CCCCC4)cc1OC [CBK074384] | 89.9 |
| Cc1nc(-c2cc3c(s2)CCN(CC(O)COCc2ccco2)C3)cs1 (stereo not shown) [CBK304460] | 89.4 |
| Cc1cc(CN(C)C(=O)c2cc3sccc3[nH]2)no1 [CBK304340] | 82.7 |
| COc1nccnc1OC1CCN(Cc2ccccc2-c2ccccc2)CC1 [CBK084246] | 87.7 |
| Cc1nn(-c2ccccn2)c2c1-c1oncc1CC2 [CBK287280] | 90.7 |
| COc1ccc2c(c1)-c1c(ss/c1=N\c1ccc(S(N)(=O)=O)cc1)C(C)(C)N2 [CBK263339] | 88.7 |
| Cc1nc(C)n(CCNC(=O)C(C)Cc2cccs2)n1 (stereo not shown) [CBK282067] | 79.7 |
| Cc1onc(-c2ccc(Cl)cc2)c1C(=O)N1CCN(C2CCN(C)CC2)CC1 [CBK149087] | 97.1 |
| Clc1ccc(CNCc2cccnc2)cc1 [CBK086257C] | 108 |
| O=[N+]([O-])c1ccc(CN2C[C@H](O)C[C@H]2c2nc(-c3ccccc3)no2)cc1 [CBK288833] | 108 |
| O=C(NCCc1cccs1)Nc1ccccc1 [CBK269917] | 88.7 |
| CN(C)CCN(C)c1cccc(-c2ccc(CCC(=O)O)cc2)n1 [CBK036983] | 105 |

| SMILES | viability at 28.5 h, 10 µM [%] |
| --- | --- |
| O=C(O)c1cccc(NS(=O)(=O)c2ccc3c(c2)CN(C(=O)C(F)(F)F)CC3)c1 [CBK155709] | 92.2 |
| O=C(O)CNCCC(=O)c1ccc([N+](=O)[O-])cc1 [CBK020544] | 87 |
| Cc1cc(NC(=O)c2ccc(N3C(=O)CCC3=O)cc2)nc2c1c(=O)oc1ccccc12 [CBK291205] | 114 |
| Nc1ncc(-c2cc(C(F)(F)F)cc(C(F)(F)F)c2)nc1Nc1ccc2[nH]ccc2c1 [CBK063651] | 71.9 |
| Cc1ccnc(SCC(=O)Nc2sc3c(c2C(=O)Nc2ccccc2)CCCC3)n1 [CBK266348] | 106 |
| CCC1CCc2c(sc(NC(=O)c3cc(-c4ccc(C)cc4C)nc4ccccc34)c2C(=O)OC)C1 (stereo not shown) [CBK262629] | 89.2 |
| O=C1CCC(=O)N1CCN1C(=O)C2(CC(=O)N(CCC(F)(F)F)C2=O)c2ccccc21 (stereo not shown) [CBK076031] | 105 |
| Cc1ccc(C(=O)NCC2COc3ccccc3O2)c(N2CCN(C(=O)c3ccco3)CC2)n1 (stereo not shown) [CBK076356] | 93.9 |
| Cc1ccc(-c2n[nH]c(=S)n2CCC(=O)N2CCC(c3c[nH]c4ccccc34)CC2)cc1 [CBK296739] | 86.8 |
| COC(=O)c1c(NC(=O)C(=O)NCc2ccco2)sc2c1CCCC2 [CBK269269] | 87.5 |
| CNC(=S)N/N=C/c1c(C)cccc1Cl [CBK021253] | 84.6 |
| CS(=O)(=O)N(Cc1ccccc1F)c1ccccc1C(=O)O [CBK287239] | 104 |
| C[C@@H](Nc1nc(-c2cccc3cccnc23)cnc1N)c1ccccc1 [CBK063784] | 90 |
| O=C(O)CCN1C(=O)c2ccc(NC(=O)c3ccccc3Cl)cc2C1=O [CBK268413] | 83.7 |
| CCN(CC)CCn1c(=N)n(CC(O)c2ccc(C)cc2)c2ccccc21 (stereo not shown) [CBK262914C] | 104 |
| COc1ccc(S(=O)(=O)Nc2ccc3oc(-c4ccccc4F)cc(=O)c3c2)cc1 [CBK300518] | 90.1 |
| COc1nccnc1N1CCN(Cc2ccc([N+](=O)[O-])cc2)CC1 [CBK084217] | 103 |
| COc1cc(-c2cnc(N)c(N3CCN(CCN(C)C)CC3)n2)cc(OC)c1OC [CBK063488] | 94.4 |
| O=C(Cc1ccccc1[N+](=O)[O-])NCCCN1CCOCC1 [CBK265520] | 92 |
| Cc1ccc2nc3c(cc2c1)CN(Cc1ccco1)C(=O)CO3 [CBK283594] | 103 |
| Cc1ccc(C(=O)NCCCNC(=O)c2ccncc2)cc1 [CBK269477] | 86 |
| COC(=O)C(CC(C)C)Nc1nc(OC)cc(OC)n1 (stereo not shown) [CBK058765] | 121 |

| SMILES | viability at 28.5 h, 10 µM [%] |
| --- | --- |
| CS(=O)(=O)N1CCc2c([nH]c3ccccc23)C12CCN(Cc1ccccc1)C2 (stereo not shown) [CBK059460] | 102 |
| CCOC(=O)c1cn(CC#N)c2cc(F)c(F)cc2c1=O [CBK304211] | 98.3 |
| C=CCn1c(SCC(=O)O)nnc1-c1ccc([N+](=O)[O-])cc1 [CBK262736] | 88.6 |
| CCOc1cc(/C=N/Nc2nncn2N)cc(I)c1O [CBK027879] | 93.6 |
| CN(C)c1ccc(CC(=O)Nc2cnc(-c3ccc(F)c(Cl)c3)c(-c3ccco3)n2)cc1 [CBK037581] | 97.9 |
| Cc1nn(CC(=O)OC2CCCCC2)c(=O)c2cc3sccc3n12 [CBK284045] | 80.8 |
| COc1ccc(C[C@@H]2NC(=O)[C@H]3CN(C(=O)Nc4cccc(OC)c4)CCN3C2=O)cc1 [CBK289617] | 98.9 |
| CNC(=O)C1(Cc2ccc(-c3ccccc3)cc2)CCN(C(=O)CC2CCCCC2)CC1 [CBK285763] | 112 |
| Cc1cc(C)n(-c2ccnc(NCCc3cccnc3)n2)n1 [CBK288615] | 94.7 |
| COC(C)(C)C(=O)N1CCCC(c2ccc(Cc3cccc(C(F)(F)F)c3)cn2)C1 (stereo not shown) [CBK286124] | 107 |
| COc1ccccc1-c1ccc(NC(=O)CCn2cnc3ccccc3c2=O)cc1 [CBK285711] | 95.2 |
| CCN(CC(=O)NCc1ccncc1)S(=O)(=O)c1ccccc1 [CBK269537] | 88.7 |
| COC(=O)c1c(NC(=O)COc2ccc(Br)cc2)sc2c1CCC2 [CBK263369] | 89.9 |
| C[C@]12CN(C3CCSC3)C[C@H]1C(=O)Nc1ccccc1C(=O)N2 (stereo partly shown) [CBK284788] | 90.8 |
| CCOc1cc2c(cc1NC(=O)CN(c1cccc(Cl)c1)S(C)(=O)=O)OC(C)C2 (stereo not shown) [CBK248179] | 94.6 |
| O=C(CSc1nnc(CN2CCOCC2)n1-c1ccccc1)N1CCc2ccccc21 [CBK266733] | 92.7 |
| CCn1nc(C)c(NC(=O)c2ncoc2-c2ccc(F)cc2)c1C [CBK282360] | 88 |
| O=C(c1ccccc1)N1C[C@H](c2ccsc2)[C@H]2CN(Cc3ccsc3)CC[C@H]21 [CBK285604] | 118 |
| Cc1cnc2[nH]c(C(C)C)c(CN(C)C)c2c1 [CBK284758] | 100 |
| Cc1nc(CNC(=O)c2nn(-c3cccc(C(C)C)c3)cc2O)no1 [CBK305269] | 89 |
| Cc1cc(-c2cn3cc(C(=O)N4CCCCC4)nc3c(=O)n2C)c(C)o1 [CBK306890] | 86.6 |
| COCCNS(=O)(=O)c1cccc2c1CN(C(=O)c1ccccc1)CC2 [CBK306539] | 106 |

| SMILES | viability at 28.5 h, 10 µM [%] |
| --- | --- |
| O=C(O)c1ccc(NC(=O)c2ncn(-c3ccccc3)n2)cc1 [CBK269445] | 97.7 |
| Nc1nc2n(n1)C1(CCCCC1)C1=C(CCCC1)N2 [CBK288219] | 86.7 |
| COc1ccc(C2N3CCCN2CC3)cc1 (stereo not shown) [CBK067068] | 92.3 |
| O=C(NCc1cccc2ccccc12)C1(c2ccccc2)CCCC1 [CBK149534] | 96.6 |
| O=C(NC1CC1)C1(Cc2ccccc2-c2cccnc2)CCOCC1 [CBK285222] | 88.7 |
| O=C([C@@H]1C[C@@H]2C=C[C@H]1C2)N1CCC(c2noc3cc(F)ccc23)CC1 [CBK281542] | 76.5 |
| CC(C)C(C(=O)O)N1C(=O)C2C3C=CC(C3)C2C1=O (stereo not shown) [CBK286535] | 84 |
| Cc1cc(NC(=O)CN2CCOC(CNc3cccnn3)C2)on1 (stereo not shown) [CBK305231] | 109 |
| CCOc1cc(/C=C2\SC(=N)NC2=O)ccc1OS(=O)(=O)c1ccc(NC(C)=O)cc1 [CBK265243] | 94 |
| O=C1C[C@@H]2CCN(C(=O)Nc3cccc(C(F)(F)F)c3)C[C@@H]2CCN1CCc1c[nH]cn1 [CBK288786] | 105 |
| O=C1CC(N2CCN(c3ccc(S(=O)(=O)N4CCOCC4)cc3)CC2)C(=O)N1Cc1ccccc1 (stereo not shown) [CBK268713] | 107 |
| O=C(c1cscn1)N1CCN(CCc2ccccc2)CC1 [CBK200230] | 106 |
| Cc1csc(C2CN(Cc3ccn(C)c(=O)c3)CCO2)n1 (stereo not shown) [CBK305763] | 91.4 |
| Cc1cc(NS(=O)(=O)c2cccc3nsnc23)n(C)n1 [CBK067246] | 95.4 |
| CC(C)Oc1ncc(C(=O)Nc2cnn(CC(N)=O)c2)cc1Cl [CBK306311] | 90.4 |
| O=C(O)C(Cc1c[nH]c2ccccc12)NCC1CCCCC1 (stereo not shown) [CBK287238] | 110 |
| COc1cccc(CN2CCCC(NC(=O)c3cn4ccsc4n3)C2)c1 (stereo not shown) [CBK307204] | 81.1 |
| COc1ccc([N+](=O)[O-])cc1NC(=O)Nc1ccc(Cl)c(Cl)c1 [CBK267593] | 99.5 |
| CCOc1ccccc1NC(C)CC(=O)O (stereo not shown) [CBK058826] | 82.8 |
| CCCc1[nH]nc(O)c1Cc1ccc(F)cc1F [CBK075015] | 85.7 |
| CCc1ccc(-c2cc3c(=O)[nH]nc(S)n3n2)cc1 [CBK288485] | 124 |

same assay, conditions: human, hela cells, % viability, bulk resorufin, single well

| SMILES | viability at 28.5 h, 10 µM [%] |
| --- | --- |
| CCCC(=O)C1(c2ccccc2)CCN(C(=O)Nc2cccc(SC)c2)CC1 [CBK016441] | 94.6 |
